The values below come from paper PMC9355956 (Communications Biology, 2022).

Where “and” joins values, the source holds several entries; their conditions need not be identical. Identical values can stand only once. Entries after “also recorded” stand apart in the source; their conditions may differ. Counter-ions that a name gives are not always drawn. Like-named read-outs stand apart in the source and are kept apart here.

Assay [1] deals with T1, hSMOX in A549 cells (Homo sapiens, UniProt Q9NWM0).
T1 construct: human lung carcinoma cells (A549) which endogenously produce high levels of hSMOX; endogenous in cells; host or cells: A549 human lung carcinoma cells
Nature of the assay: CETSA in A549 cells with hSMOX AlphaLISA detection. The settings on record: A549 intact cells, 54 °C, vs vehicle. The class given is cell-based. The text has this: To determine whether JNJ-1289 would be able to target hSMOX in a cellular environment, we developed a Cellular Thermal Shift Assay (CETSA®)[52] using human lung carcinoma cells (A549) which endogenously produce high levels of hSMOX[53]. CETSA evaluates the binding of low molecular weight compounds to target proteins directly in intact cells by taking advantage of the increased resistance to thermal denaturation that ligand binding can confer on proteins. Detection of the relative amounts of remaining soluble protein using AlphaLISA after incubation of A549 cells at the optimal melting temperature of hSMOX for CETSA (54 °C) was performed in the presence or absence of hSMOX ligands.
A549 (adenocarcinoma human alveolar basal epithelial cells) express relatively high levels of hSMOX. Their use has been widely reported in the literature for the investigation of the polyamine catabolic pathway. In our case, using hSMOX high-expressing cells with CETSA and AlphaLISA systems provided the optimal platform for screening promising small molecules for hSMOX inhibition.
T175 culture flasks with 80–90% confluent cells were used for harvesting after washing two times with PBS followed by the addition of 2 mL TrypLE^TMselect (Gibco) per flask and incubation for 5 min at 37 °C. After dissociation, cells were resuspended in 1 mL culture medium (DMEM (Gibco) with 10% fetal calf serum) and 7 mL PBS. Cells from multiple flasks were pooled, spun down for 5 min at 300 × g, and resuspended to 20 million cells/mL in PBS.
Compounds were dissolved in DMSO to 1 mM stocks. Compound stocks and DMSO controls were added to vials containing 1 mL cell suspension to an end concentration of 10 µM compound and 1% DMSO. Vials were incubated at 37 °C for 1 h while shaking at 125 rpm. Subsequently, vials were cooled on ice and cells were distributed to PCR vials at 20 µL per vial. Transient heating of the cells was performed using a PCR Thermocycler. Vials were heated up to 54 °C for 1 min and then immediately cooled on ice. For temperature range experiments the heating step was repeated increasing the temperature with each next vial with 1 °C. After the cooling step cells were lysed by adding 80 µL 1x AlphaLISA-buffer (Perkin Elmer).
The hSMOX specific AlphaLISA was developed using internally monoclonal rabbit antibody mAb#2 and F(ab’)2 fragment Fab#33 against hSMOX containing a C-terminal His-tag. Both mAb#2 and Fab#33 are specific for hSMOX and selected for their ability to detect hSMOX without interfering with its catalytic activity. Care was taken to confirm that both mAb#2 and Fab#33 bind to distinct (conformational) epitopes. […] After 1 h Alpha signal was read using an Alpha compatible reader. […]
For orientation: Alpha assays give light when donor and acceptor beads are brought close together.

The target of assay [2] is hPAOX (Homo sapiens, UniProt Q6QHF9). Nature of the assay: hPAOX HyPerBlu enzyme activity assay (N-AcSpm substrate).
Protocol: The activity of hSMOX, hPAOX, and LSD1 enzymes was measured using the HyPerBlu chemiluminescent reagent for the direct detection of the hydrogen peroxide product. […] Hydrogen peroxide product formation was monitored 30 min after the addition of HyPerBlu on a PHERAstar microplate reader (BMG LABTECH, Cary, NC). All compounds were spotted into the assay plates using Echo acoustic dispensing technology (BeckmanCoulter, Indianapolis, IN). Unless otherwise stated, all reactions were carried out in 384-well assay format.
2 µL/well of 2x substrate was dispensed into the assay plate followed by 2 µL/well of 2x enzyme to initiate the reactions. […] The data were fit to the 4-parameter IC50 equation in GraphPad Prism.
50 nL/well of the twofold inhibitor titrations in 100% DMSO were dispensed into the assay plate followed by the addition of 2.5 µL of 2x hSMOX or 2x hPAOX. A 2 h or 4 h E·I preincubation was carried out at a final concentration of 2 nM or 3 nM hSMOX or 60 pM hPAOX. […] For the 0 h preincubation control, the addition of the substrate solution was made prior to the enzyme solution. […] The data were fit to the 4-parameter IC50 equation in GraphPad Prism.
Briefly, 2.5 µL/well of the twofold substrate solutions prepared in buffer was added to the assay wells followed by 2.5 µL/well of the 2x enzyme to initiate the reactions.
The initial velocity data were fit to the Michaelis-Menten equation in GraphPad Prism. Y=Vmax*X/(Km+X) where Vmax is the maximal velocity, X is the substrate concentration and Km is the Michaelis-Menten constant. The kcat value was determined by dividing Vmax value by the enzyme concentration.
Assay [3] deals with T2, hSMOX (Homo sapiens, UniProt Q9NWM0).
T2 construct: 6xHis (N); TEV cleavage site (N); made in house; host or cells: E. coli BL21(D3), plasmid PET28b(+)
Nature of the assay: nanoDSF thermal denaturation of purified SMOX. The class given is binding. Particulars: 10 μM SMOX, 100 μM compound. The protocol: All nanoDSF experiments were performed on a nanoTEMPER Prometheus NT.48 instrument. 10 μM purified SMOX was incubated with 100 μM compound of interest for 10 min and loaded onto the instrument. Thermal denaturation (25–90 °C) was conducted at 1.0 °C/min and 45% intensity. Tm was calculated using PR.ThermControl software as the inflection point of the first derivative of Trp fluorescence during the temperature gradient measured at 350/330 nm. All experiments were performed in triplicate.
Background: Differential scanning fluorimetry follows unfolding on heating by fluorescence.

Assay [4] has as its target T2, hSMOX. The assay can be described thus: Progress curve analysis of hSMOX inhibition (on rate, mode of inhibition). The class given is biochemical. The protocol: Reactions were initiated with 3 µL/well of 2x hSMOX and quenched at several time points up to 1 h with 3 µL/well of 25 µM final chlorhexidine. […] Thereafter, 9 µL/well of HyPerBlu reagent was added.
Time point data up to 1 h of reaction time was captured by dispensing 3 µL/well of 25 µM final chlorhexidine to quench the reactions followed by the addition of 9 µL/well HyPerBlu reagent.
Supplementary Fig. 11. Kinetics of JNJ-1289. a, Reaction progress curve analysis of 2 nM […]
Progress curves were monitored for 1h and fit to Eqn S1 at each JNJ-1289 concentration to determine the observed rate constant, kobs.
[P] = Y0 + υ t + υi−υs (1 − e−kobst) (S1) […]
where υi and υs are the initial and steady state velocities, respectively, t is time and kobs represents the observed rate constant. b, Replot of kobs vs. [JNJ-1289] was hyperbolic, which indicated a two-step binding mechanism […]
where I is the inhibitor concentration, k5 and k6 are the estimated forward and reverse rate constants, respectively, and Kiapp is the apparent value of the initial E·I complex. […]
concentrations (7.8 – 1000 µM). Progress curves were monitored for 1h and fit to Eqn S3 at […]
(1 picture or pasted object on this page, not shown here)

In assay [5] the target is LSD1 (Homo sapiens, UniProt O60341). The assay can be described thus: LSD1 HyPerBlu enzyme activity assay (H3K4me2 peptide substrate).
Assay [6] addresses T2, hSMOX. Nature of the assay: hSMOX HyPerBlu chemiluminescent enzyme activity assay (H2O2 detection, Spm substrate). The class given is biochemical. Particulars: for time-dependent inhibition of hSMOX: ± 2 h preincubation with enzyme. The text has this:
Based on this assay, we carried out a high-throughput screening campaign searching for inhibitors of hSMOX against a diverse compound collection.

In assay [7] the target is T2, hSMOX. The assay can be described thus: Thermal shift assay (ThermoFluor, ANS dye) of purified hSMOX. Particulars: compared to DMSO control. The class given is binding. The protocol: The fluorescent dye ANS (Molecular Probes) was used to monitor the thermal denaturation of hSMOX. Assay buffer consisting of 10 mM HEPES pH 7.5, 150 mM NaCl, 0.005% P20 was used for all dilutions. The assay was performed in 384-well Hard Shell thin-wall PCR plates (Bio-Rad). 120 nL of ligand was dispensed into the 384-well plate using acoustic dispensing technology followed by the addition of 4 µL of 0.2 mg/ml of hSMOX with 60 µM ANS dye. Replicates of 4% DMSO protein control were set up in each plate. Wells were covered with 1 µL silicone oil. Plates were centrifuged at 1000 rpm for 2 min. The Tm’s were measured using a ThermoFluor instrument. The plates were heated from 30 to 80 °C at a rate of 1 °C per minute. The ΔTm is calculated as the difference between the Tm of each well and that of the average 4% DMSO protein control.

In assay [8] the target is murine SMOX enzyme. The settings on record: value reported for the murine SMOX enzyme; cited from earlier work.
[9] abbreviates: 2.5 nM hSMOX, 30 µM Spm, 1 h reaction, HTS assay conditions, read-out: IC50 hSMOX.

T2 sequence (Q9NWM0 whole entry): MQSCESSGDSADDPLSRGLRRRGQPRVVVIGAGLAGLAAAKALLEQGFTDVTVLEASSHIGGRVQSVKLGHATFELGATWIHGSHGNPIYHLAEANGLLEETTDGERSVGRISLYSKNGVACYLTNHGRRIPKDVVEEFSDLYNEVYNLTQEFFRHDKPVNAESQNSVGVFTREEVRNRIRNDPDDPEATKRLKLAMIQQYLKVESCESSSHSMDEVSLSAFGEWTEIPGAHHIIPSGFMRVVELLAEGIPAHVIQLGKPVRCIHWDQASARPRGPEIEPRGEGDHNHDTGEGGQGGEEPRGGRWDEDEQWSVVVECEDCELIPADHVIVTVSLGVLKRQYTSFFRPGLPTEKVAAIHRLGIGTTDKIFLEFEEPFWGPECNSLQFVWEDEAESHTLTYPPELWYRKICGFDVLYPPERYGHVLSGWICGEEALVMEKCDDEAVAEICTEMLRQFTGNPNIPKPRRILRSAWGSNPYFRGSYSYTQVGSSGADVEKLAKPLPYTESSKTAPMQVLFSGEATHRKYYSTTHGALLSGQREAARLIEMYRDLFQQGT
T1 sequence (Q9NWM0 whole entry): as above
Sequence of hPAOX (Q6QHF9 whole entry): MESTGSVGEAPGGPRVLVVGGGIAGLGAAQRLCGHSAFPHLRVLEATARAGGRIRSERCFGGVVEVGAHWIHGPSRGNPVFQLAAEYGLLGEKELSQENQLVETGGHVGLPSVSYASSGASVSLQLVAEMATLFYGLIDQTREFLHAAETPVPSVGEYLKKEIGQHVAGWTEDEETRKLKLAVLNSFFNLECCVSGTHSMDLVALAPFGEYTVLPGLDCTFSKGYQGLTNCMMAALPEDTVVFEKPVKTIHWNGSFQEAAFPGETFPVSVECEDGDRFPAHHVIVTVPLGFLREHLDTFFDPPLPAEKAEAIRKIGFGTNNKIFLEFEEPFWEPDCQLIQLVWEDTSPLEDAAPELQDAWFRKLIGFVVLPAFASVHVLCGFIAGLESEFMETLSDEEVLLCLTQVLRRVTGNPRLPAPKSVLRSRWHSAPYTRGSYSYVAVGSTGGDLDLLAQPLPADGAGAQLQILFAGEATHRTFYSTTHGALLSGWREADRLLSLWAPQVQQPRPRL

Consider `CCNCCCNCCCNCCCNCC` [Benspm], for which the “cellular hSMOX engagement (AlphaLISA signal after heating)” value (from here on “cellular hSMOX engagement”) in assay [1] is on record as “absence of cellular hSMOX engagement”.

As usually defined, the IC50 is the concentration needed to halve the response being measured. As usually defined, the kon is the second-order rate constant of association. Usually koff stands for a measure of how fast the partners let go of each other. For the compound `Oc1ccc(Nc2nc(-c3cnc4ccccn34)cs2)cc1` [JNJ-1289, 4-((4-imidazo[1,2,α]pyridine-3-ylthiazol-2-yl)amino)phenol], the IC50 in assay [2] is above 2000 nM; in assay [5] it was above 2000 nM; in assay [6] (setting [9]), 50 nM; in assay [6] (2 h preincubation, 30 µM Spm, read-out: IC50 hSMOX, 2 h (120 min) enzyme-inhibitor preincubation), 5.5 nM and 8 nM; in assay [6] (IC50 hSMOX, 4 h (240 min) enzyme-inhibitor preincubation, 4 h preincubation, 30 µM Spm), 3.2 nM; in assay [6] (no preincubation, 30 µM Spm, read-out: IC50 hSMOX, 0 h enzyme-inhibitor preincubation), 143 nM and 127 nM. Moreover, the “time-dependent inhibition of hPAOX” value in assay [2] (± 2 h preincubation with enzyme) was “do not observe time-dependent inhibition”. For the same compound, the “thermal stability of hSMOX (nanoDSF)” value in assay [3] is given as “increase the thermal stability of the protein”. Besides, the “mode of inhibition with respect to Spm” value in assay [4] (312 nM inhibitor, varying Spm, 2 nM hSMOX) is “competitive hSMOX inhibitor”. In addition, the t1/2 dissociation in assay [4] (from 0.693/koff) came out at 7.7 h. Besides, the Ki in assay [4] (read-out: apparent Ki (Ki app) of the initial E·I complex) came to 1400 nM. For the same compound, in assay [4] (read-out: apparent second-order on-rate constant (kon)), the kon worked out at 2500 M⁻¹ s⁻¹. The off-rate (koff) in assay [4] (read-out: calculated first-order dissociation rate constant (koff)) is 2.5e-05 s⁻¹. Further, the “IC50 hSMOX, 4 h (240 min) enzyme-inhibitor preincubation” value in assay [6] (4 h preincubation, 30 µM Spm) is on record as “within twofold of the results observed using a 120 min pre-incubation”. Further, the “time-dependent inhibition of hSMOX” value in assay [6] is “selective and time-dependent inhibition; also recorded: time-dependent hSMOX inhibitor”. In addition, the “ΔTm of hSMOX (thermal shift)” value in assay [7] worked out at 11.3 °C. Also, in assay [1], the “cellular hSMOX engagement” value is reported as “absence of cellular hSMOX engagement; also recorded: apparent lack of target engagement”.

Regarding `C=C=CCNCCCCNCC=C=C` [MDL72527, reference compound], the “thermal stability of hSMOX (nanoDSF)” value in assay [3] is “increase the thermal stability of the protein”. Besides, the “cellular hSMOX engagement” value in assay [1] is on record as “robust cellular hSMOX engagement”.

As usually defined, the Km is the substrate concentration at which the rate is half of its maximum. With `CC(=O)NCCCNCCCCNCCCN` [N-AcSpm, N^1-acetylspermine trihydrochloride], in assay [2] (read-out: Km for hPAOX, substrate, 0.076 nM hPAOX), the Km came to 20.1 ± 0.63 µM. In assay [2] (substrate, 0.076 nM hPAOX), the “kcat hPAOX” value stood at 57 s⁻¹.

`NCCCNCCCCNCCCN` [Spm, spermine]: the “kcat hSMOX” value in assay [6] (substrate, 2.5 nM hSMOX) was found to be 4 s⁻¹.

Regarding `[H]/N=C(\N/C(=N/[H])NCCCCCCNC(=N)NC(=N)Nc1ccc(Cl)cc1)Nc1ccc(Cl)cc1` [chlorhexidine, reference compound], in assay [6], the “inhibition of hSMOX (in words)” value is recorded as “robust inhibition” and the “time-dependent inhibition of hSMOX” value is on record as “not observed”. Moreover, the 50% inhibitory concentration (IC50) in assay [6] (setting [9]) was found to be 1900 nM. For the same compound, in assay [6] (listed as Chlorhexidine), the “inhibition of hSMOX (in words)” value is recorded as “inhibited” and the “time-dependent inhibition of hSMOX” value is reported as “did not display time-dependent inhibition”. The “cellular hSMOX engagement” value in assay [1] is “absence of cellular hSMOX engagement”. Also, the Ki in assay [8] was 3800 ± 200 nM.
